Measured values taken from the NIST ThermoML archive (doi:10.1016/j.jct.2014.02.019).

Columns and labels:
[1] = 101 kPa, Liquid; for viscosity: Capillary tube (Ostwald / Ubbelohde) method; for mass density: Vibrating tube method
[2] = wn = mass fraction of the nth substance listed; conditions: 101 kPa, Liquid; for viscosity: Capillary tube (Ostwald / Ubbelohde) method; for mass density: Vibrating tube method

CC#N [acetonitrile]
[1]
Conditions	mass density [kg/m3]	viscosity [mPa·s]
298.15 K	776.47	0.342
303.15 K	771.56	0.3269
308.15 K	765.26	0.3092
313.15 K	759.55	0.2929

CC#N [acetonitrile] + CN(C)C=O
[2]
Conditions	mass density, 298.15 K [kg/m3]	mass density, 303.15 K [kg/m3]	mass density, 308.15 K [kg/m3]	mass density, 313.15 K [kg/m3]	viscosity, 298.15 K [mPa·s]	viscosity, 303.15 K [mPa·s]	viscosity, 308.15 K [mPa·s]	viscosity, 313.15 K [mPa·s]
w2 = 0	776.47	771.56	765.26	759.55	0.342	0.3269	0.3092	0.2929
w2 = 0.25	816.75	811.82	806.58	801.83	0.3959	0.3598	0.3417	0.3262
w2 = 0.5	856.92	852.67	847.38	842.57	0.5214	0.46	0.434	0.4038
w2 = 0.75	900.14	895.46	890.88	886.23	0.6465	0.6145	0.5816	0.5524

CN(C)C=O [dimethylformamide] + CC#N
[2], w1 = 1
Conditions	mass density [kg/m3]	viscosity [mPa·s]
298.15 K	944.65	0.7986
303.15 K	940.05	0.755
308.15 K	935.71	0.7069
313.15 K	929.91	0.6716

CN(C)C=O [dimethylformamide]
[1]
Conditions	mass density [kg/m3]	viscosity [mPa·s]
298.15 K	944.65	0.7986
303.15 K	940.05	0.755
308.15 K	935.71	0.7069
313.15 K	929.91	0.6716
